Common to all, as to assay type: binding, human
In test [1] the test system is antibodies (IgE and IgG) in sera of soybean-protein sensitive patients. Description: Peptide microarray, recognition of peptides by patient sera (IgE and IgG, total). The following applies: sera from 50 patients. The source says:
(§1) Epitope candidates were supplied externally (Neundorf, University of Cologne, Germany). The peptide is synthesised with the following structure: Ac-N-epitope sequence-C-Ebes-Lys(γ-N3)-amide (Ebes=amino-3,6-dioxaoctyl-succinamic acid). The peptide sequences were based on either the naïve soybean protein sequence (Pr) or the mimotope from phage display experiment (Ph). The peptide length varied between eight and nineteen amino acids. Glass slides were coated with Dibenzocyclooctyl (DBCO). The peptides were immobilized using different concentrations (81 ng/μl, 27 ng/μl or 9 ng/μl) on glymo-covered slides using click chemistry.
(§2) Each slide was blocked for 30 min with PBS containing 0.1% (v/v) Tween-20 and 1% (w/v) BSA, pH 7.4. For the incubation with sera cover slides (HybriWell™. 60 mm×21 mm×0.15) were used. Sera from 50 patients with differently intense prick reaction to soy milk were tested. The slides were incubated with 100 μl sera from the soybean-sensitive patients diluted 1:50 in blocking buffer overnight at 4° C. After two washes in washing buffer (PBS containing 0.1% (v/v) Tween-20, pH 7.4) the slides were shaken at 200 rpm for 60 min in a mouse-anti human IgE antibody (Abcam, Cambridge, UK, ab99834) diluted to 100 ng/ml or goat-anti human IgG antibody Cy5 (Abcam, Cambridge, UK, ab97172) diluted to 100 ng/ml in blocking buffer. After two further washes, bound IgG and IgE were detected by incubating the array for 60 min at room temperature with the secondary Cy5-labeled goat anti-mouse antibody (life technologies, Thermo Fisher Scientific, Waltham, Mass., USA, A10524) diluted to 400 ng/ml in blocking buffer. Fluorescence signals on the array were detected in a microarray reader (Geneprix 4200A) at 635 nm and the data were evaluated using GenePix® Pro 6 software to determine the signal intensity of each peptide spot. The software calculated the signal to noise ratio (SNR) for every spot. An overall threshold of 5 signal to noise ratio units was set, and signals above this threshold were assumed to indicate positive recognition by the patient sera.

For test [2], the system named is IgG of sera from soybean-sensitive patients. Description: Peptide microarray, immune status of soybean-sensitive patients: IgG detection. The following applies: sera from 50 patients, diluted 1:50; positive = signal to noise ratio above 5.
Excerpt: as §1, §2

In test [3] the test system is IgE of sera from soybean-sensitive patients. Description: Peptide microarray, immune status of soybean-sensitive patients: IgE detection. The note with it: sera from 50 patients, diluted 1:50; positive = signal to noise ratio above 5.
Excerpt: as §1, §2

The subject of test [4] is antibodies of serum from patients with soy allergy. Description: Phage display affinity selection and panning (ENTE1 library), sequencing and statistical motif analysis. The following applies: for sequence count (lcount): 2013_S1_2. Panning; for all three epitopes (SEQ ID NO.: 17, 20, 15) recognized by the same patient: 23 patients; for epitope recognized by patients / two epitopes (SEQ ID NO.: 15, SEQ ID NO.: 17) recognized by the same patients: number of patients out of 23. The text has this:
Strong immunodominant allergic proteins, such as P34 thiol protease (Gly m Bd 30K), are known to induce allergic reactions, whereas other soybean proteins, although no potent inducers of a primary allergic response, can nevertheless trigger effector responses due to their binding by IgE. […] For example, only 65% of soybean sensitive individuals carry IgE recognizing P34 thiol protease (Gly m Bd 30K), which is considered one of the strongest allergenic soybean proteins (Yang et al., 2011). […] To identify many specific epitopes, i.e. amino acid sequences of soybean proteins, recognized by antibodies of sensitive patients, with high resolution down to the individual amino acids involved, the inventors applied a novel approach using a specific random phage library (EP 14 166 662.8). This phage library is generated using triplet codons with specific limitations, such that most amino acids are regularly represented throughout the entire library. In consequence, the library covers an unusually broad range of sequence variability and allows particular reliable statistical analysis. The library was contacted with serum samples derived from a biobank of 50 different soybean protein sensitive patients. After phage selection, the amino acid sequences that were bound by the patients' antibodies (anti-[allergen antibody] amino acid sequence) were identified by next generation sequencing and the results statistically analyzed. To confirm the allergy relevance of the identified amino acid sequences, their reactivity with patient IgE was determined by peptide arrays. Thereby, the inventors identified more than 300 potentially allergenic epitopes from different soybean proteins. The identified epitopes could be assigned to a total of 23 soybean proteins (Table 1) including P34 thiol protease (Gly m Bd 30K), β-conglycinin (Gly m Bd60 K) and Gly m Bd 28K, which are considered major soybean allergenic proteins (Yang et al., 2011).
24 μg of serum protein from patients with soy allergy were diluted in 2.5 ml PBS and coated in protein binding Immuno™ Tubes with Maxisorp™ for 1 h at 4° C. at 18 rpm (negative control: PBS). The coated tubes were washed with 2.5 ml blocking buffer (5% NFDM/1×PBS) and incubated with 4 ml blocking buffer at 4° C. for at least 15 min (18 rpm). The tubes were washed three times with 4 ml wash buffer I (1×PBS). 1 ml blocking buffer containing 30 μg of non-allergic serum protein and the phage library ENTE1 was added to each tube. The tubes were incubated for 2 h at 4° C. (18 rpm). After incubation, the tubes were washed 5 times with 1 ml 0.1% Tween/1×PBS and subsequently with 0.5% Tween/1×PBS. Then the bound phages were eluted using 1 ml of elution buffer (0.1 M Glycin.HCl pH 2.2). The tubes were incubated 5 min and vortexed several times. The eluate was immediately neutralized with 200 μl neutralization buffer (1 M Tris.HCl pH 8.2). In the first selection round 4×10^11 cfu of the ENTE1-library were used per tube. In the second selection round 1000×the recovered phages were inserted.
TG1 (λ) cells were grown in 250 ml baffled culture flasks in 10 ml dYT at 37° C. until they reached an OD600 about 0.5-1.0. The cells were incubated with eluted phage for 20 min at 37° C. with 100 rpm agitation. After incubation, the solution was immediately poured on dYT-agar plates (25×25 cm) containing 200 μg/ml ampicillin and incubated overnight at 30° C.
After overnight incubation the colonies were resuspended in 25 ml dYT containing 1×10^10 cfu/ml M13K07. The cells were diluted in 25 ml dYT containing 500 μg/ml ampicillin and 1×10^10 cfu/ml M13K07 using a 250 ml baffled culture flasks to obtain a cell density of OD600 0.5. The cells were incubated for 1 h at 37° C. with 180 rpm agitation. Afterwards the culture was growing about 13 h at 30° C. with 180 rpm agitation. […]

Ends that are not written are not given here.

Regarding SHHDQPRQHA (peptide P4) [28], the “total (IgE- and IgG-positive sera)” value in test [1] is recorded as 18. Further, in test [2], the “Number of IgG-positive sera” value amounted to 6. The “Number of IgE-positive sera” value in test [3] turned out to be 12.
The matching figures for KVLFSREEGQQQ (peptide P6) [35]: 31, 9 and 21.
The corresponding values for EFLKYQQEQG (peptide P12) [127] are 24, 12 and 12.
In the case of “GIEPCSKYSQHQQHVQN (glycine max) [SEQ ID NO.: 706]”, the “sequence count (lcount)” value in test [4] turned out to be 250.
For the substance DEGEQPRPFPFPRPR (peptide P7) [54], the “total (IgE- and IgG-positive sera)” value in test [1] came out at 4. The “Number of IgG-positive sera” value in test [2] turned out to be 2. For the same substance, the “Number of IgE-positive sera” value in test [3] was found to be 2.
In the case of GYNPCRQEEDEELHHKC (peptide P19) [104], the “total (IgE- and IgG-positive sera)” value in test [1] is 15. For the same substance, the “Number of IgG-positive sera” value in test [2] is reported as 6. Moreover, in test [3], the “Number of IgE-positive sera” value stood at 9.
Regarding NSERD (glycine max) [SEQ ID NO.: 15], in test [4], the “all three epitopes (SEQ ID NO.: 17, 20, 15) recognized by the same patient” value is “one”; the “epitope recognized by patients” value is listed as 7/23; the “two epitopes (SEQ ID NO.: 15, SEQ ID NO.: 17) recognized by the same patients” value was 5/23.
For RRFYLAGNQEQEFL (peptide P15) [126], the “total (IgE- and IgG-positive sera)” value in test [1] worked out at 6. Besides, in test [2], the “Number of IgG-positive sera” value was 2. Further, in test [3], the “Number of IgE-positive sera” value was found to be 3.
The corresponding values for GVYNSQVDDEEEQNQRD (peptide P13) [159] are 8, 1 and 7.
The matching figures for EVSFASQVLIY (peptide P3) [94]: 9, 3 and 6.
In the case of EIPRPR (glycine max) [SEQ ID NO.: 20], in test [4], the “all three epitopes (SEQ ID NO.: 17, 20, 15) recognized by the same patient” value is listed as “one” and the “epitope recognized by patients” value was 3/23.
Regarding VEEEEECEEGQI (peptide P9) [50], the “total (IgE- and IgG-positive sera)” value in test [1] was determined as 50. Further, the “Number of IgG-positive sera” value in test [2] is 17. For the same substance, in test [3], the “Number of IgE-positive sera” value is on record as 32.
The matching figures for HITFSREEGSI (peptide P5) [35]: 14, 2 and 12.
The corresponding values for HIQEEECEGDL (peptide P8) [50] are 4, 2 and 2.
The corresponding values for SQSHGFHGLCNRDHNCA (peptide P2) [100] are 8, 1 and 7.
Consider RNQACHA (glycine max) [SEQ ID NO.: 17], for which, in test [4], the “all three epitopes (SEQ ID NO.: 17, 20, 15) recognized by the same patient” value is “one”; the “epitope recognized by patients” value is recorded as 15/23; the “two epitopes (SEQ ID NO.: 15, SEQ ID NO.: 17) recognized by the same patients” value was 5/23.
For the substance HVVEQEFLD (peptide P14) [126], the “total (IgE- and IgG-positive sera)” value in test [1] was 28. For the same substance, the “Number of IgG-positive sera” value in test [2] stood at 5. Moreover, the “Number of IgE-positive sera” value in test [3] was 23.
The corresponding values for SDKYQEEFQPR (peptide P10) [127] are 12, 1 and 10.
The matching figures for FDQKESQHFS (peptide P17) [345]: 2, 1 and 0.
Regarding “GEIMCWREVVTQHQQHA (glycine max) [SEQ ID NO.: 707]”, the “sequence count (lcount)” value in test [4] was determined as 122.
As for TEKYQQNSSG (peptide P11) [127], the “total (IgE- and IgG-positive sera)” value in test [1] was 5. Besides, in test [2], the “Number of IgG-positive sera” value turned out to be 3. In addition, the “Number of IgE-positive sera” value in test [3] is reported as 2.
As to QDQEEDEEDE (peptide P20) [104], the “total (IgE- and IgG-positive sera)” value in test [1] stood at 7. The “Number of IgG-positive sera” value in test [2] is reported as 2. In addition, in test [3], the “Number of IgE-positive sera” value came out at 5.
The corresponding values for HAANVVGNKESQREAR [Peptide P18] are 9, 1 and 8.
The matching figures for ISQQDRHRI (peptide P16) [154]: 42, 13 and 28.
QHQQ: in test [4] (Serum 1, 1. Panning round), the “motive count, first panning” value was 407 counts. In test [4] (Serum 1, 2. Panning round), the “motive count, second panning” value was found to be 825 counts.
Take “GFNLCNRDRPAP (Ac-GFNLCNRDRPAP; not fully specified (C-terminus); also: Ebes linker, place not given here, Lys(azide), place not given here) [Peptide P1, 100]”: the “total (IgE- and IgG-positive sera)” value in test [1] is on record as 8. Moreover, the “Number of IgG-positive sera” value in test [2] is given as 4. Also, the “Number of IgE-positive sera” value in test [3] is 4.
